Reference: US9096548B2, “Pyrazine amide compounds” (Boehringer Ingelheim International GmbH, priority 2013, dated 2015)
Structures can show the parent of a compound that is named as a salt. Where two headings read alike, the source gives them in different places.

Target: T1, ENaC (Epithelial Sodium Channel) (Mus musculus, UniProt Q61180+Q9WU38+Q9WU39)
T1 construct: Mouse kidney M−1 cells were cultivated in DMEM; endogenous in cells; host or cells: Mouse kidney M-1 cells, cultivated with dexamethasone on transwell filters
T1 sequence (Q61180 1-699): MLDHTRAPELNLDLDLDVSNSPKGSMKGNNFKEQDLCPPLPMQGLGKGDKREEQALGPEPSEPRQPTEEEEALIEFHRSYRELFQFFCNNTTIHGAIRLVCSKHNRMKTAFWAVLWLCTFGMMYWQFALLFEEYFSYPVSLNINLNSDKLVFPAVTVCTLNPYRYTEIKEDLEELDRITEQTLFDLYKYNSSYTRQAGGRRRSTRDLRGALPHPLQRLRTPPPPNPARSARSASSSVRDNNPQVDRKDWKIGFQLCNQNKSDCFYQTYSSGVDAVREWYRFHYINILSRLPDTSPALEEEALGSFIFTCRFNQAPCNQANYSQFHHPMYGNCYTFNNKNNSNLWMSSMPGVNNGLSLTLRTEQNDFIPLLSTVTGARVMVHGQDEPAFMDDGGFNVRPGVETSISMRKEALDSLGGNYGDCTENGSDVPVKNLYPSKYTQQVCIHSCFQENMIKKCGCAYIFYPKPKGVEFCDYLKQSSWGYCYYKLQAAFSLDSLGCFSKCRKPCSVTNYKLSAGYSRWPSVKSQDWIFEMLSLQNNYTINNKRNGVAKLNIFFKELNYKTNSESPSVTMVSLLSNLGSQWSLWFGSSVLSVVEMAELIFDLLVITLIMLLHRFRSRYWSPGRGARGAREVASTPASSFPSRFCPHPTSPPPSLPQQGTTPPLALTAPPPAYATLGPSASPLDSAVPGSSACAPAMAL
T1 sequence (Q9WU38 1-638): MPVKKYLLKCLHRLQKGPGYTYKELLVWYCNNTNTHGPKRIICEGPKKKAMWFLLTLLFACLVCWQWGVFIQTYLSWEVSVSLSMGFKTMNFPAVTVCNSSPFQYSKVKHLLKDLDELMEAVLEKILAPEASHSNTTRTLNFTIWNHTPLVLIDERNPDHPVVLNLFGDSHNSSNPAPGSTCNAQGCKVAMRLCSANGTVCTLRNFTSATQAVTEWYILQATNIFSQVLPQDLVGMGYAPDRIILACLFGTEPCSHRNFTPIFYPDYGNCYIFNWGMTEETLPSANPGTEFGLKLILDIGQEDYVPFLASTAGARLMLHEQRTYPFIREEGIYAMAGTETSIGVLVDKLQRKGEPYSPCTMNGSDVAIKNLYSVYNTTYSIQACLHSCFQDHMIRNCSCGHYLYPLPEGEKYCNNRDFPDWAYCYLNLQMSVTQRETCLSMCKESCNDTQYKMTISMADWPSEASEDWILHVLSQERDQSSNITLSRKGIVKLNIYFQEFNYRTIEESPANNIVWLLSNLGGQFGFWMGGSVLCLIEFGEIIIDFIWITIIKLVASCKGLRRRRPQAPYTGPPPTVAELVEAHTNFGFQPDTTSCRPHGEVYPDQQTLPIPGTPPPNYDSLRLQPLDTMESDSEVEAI
T1 sequence (Q9WU39 1-655): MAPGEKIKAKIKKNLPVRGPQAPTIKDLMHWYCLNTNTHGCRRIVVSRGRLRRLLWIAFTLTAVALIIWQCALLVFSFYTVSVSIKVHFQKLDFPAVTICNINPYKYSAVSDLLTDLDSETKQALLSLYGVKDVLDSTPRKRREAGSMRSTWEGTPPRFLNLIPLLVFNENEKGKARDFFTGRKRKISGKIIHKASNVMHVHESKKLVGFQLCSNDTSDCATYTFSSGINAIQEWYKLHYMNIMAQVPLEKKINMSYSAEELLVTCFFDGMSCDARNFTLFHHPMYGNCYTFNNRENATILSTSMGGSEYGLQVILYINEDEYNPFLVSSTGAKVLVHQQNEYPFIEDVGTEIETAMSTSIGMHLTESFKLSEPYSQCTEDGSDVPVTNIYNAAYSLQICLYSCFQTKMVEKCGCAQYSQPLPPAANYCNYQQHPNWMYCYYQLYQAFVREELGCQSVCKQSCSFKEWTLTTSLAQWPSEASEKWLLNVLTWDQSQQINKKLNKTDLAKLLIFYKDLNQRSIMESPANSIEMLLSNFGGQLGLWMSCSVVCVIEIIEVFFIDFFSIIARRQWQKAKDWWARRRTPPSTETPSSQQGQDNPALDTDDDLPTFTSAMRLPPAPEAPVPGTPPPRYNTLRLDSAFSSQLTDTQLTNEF
Assay: Ussing Chamber assay (short circuit current, amiloride sensitive I_SC)
Type: cell-based
Conditions: Ussing chamber, mouse kidney M-1 cells, short circuit current, read-out: IC50
Description: The IC50 values of the example compounds given above were determined in the Ussing Chamber assay.
Ussing Chamber: Mouse kidney M−1 cells were cultivated in DMEM containing 5% FCS and 5 μM dexamethasone for 10 to 12 days on polyester transwell filters. Filters were inserted into a teflon-coated well-plate which fit into the ussing chamber system. Prior to measurement the medium of M−1 cells was replaced with Caco-2 transport buffer (Invitrogen, Germany). During measurements, the Ussing chamber temperature was kept at 37° C. Short circuit currents (I_sc) were measured in the voltage-clamp mode with the software package Lab View for data acquisition and analysis. The transepithelial electrical resistance (TEER) was determined by the application of voltage steps of ±5 mV every 5 sec. Compounds were administered at a final concentration of 3 μM or at increasing concentrations (1-3-10 μM) to the apical solution. At the end of each experiment the amiloride sensitive I_SC was measured by adding 3 μM amiloride to the apical compartment. Results are expressed as inhibition in percent of the amiloride effect or as IC50.

[1] = compound added to the apical solution

SMILES | IC50 [1] [µM] | also measured
CN(CCO)C(=O)COc1ccc(CCC[N+]2(CCCc3ccc(OCC(=O)N(C)CCO)cc3)CCC[C@H](NC(=O)c3nc(Cl)c(N)nc3N)C2)cc1 [Example 6.61] | 0.108 | 
COCCOc1ccc(CCC[N+]2(CCCc3ccc(OCCOC)cc3)CCCC(NC(=O)c3nc(Cl)c(N)nc3N)C2)cc1 (centres unmarked) [Example 9.3, 3-[(3,5-Diamino-6-chloro-pyrazine-2-carbonyl)-amino]-1,1-bis-{3-[4-(2-methoxy-ethoxy)-phenyl]-propyl}-piperidinium chloride] |  | IC50 (unit inferred): 0.022 µM
COc1ccc(OCC[N+]2(CCOc3ccc(OC)cc3)CCC[C@H](NC(=O)c3nc(Cl)c(N)nc3N)C2)cc1 [Example 10.6, 3-[(3,5-Diamino-6-chloro-pyrazine-2-carbonyl)-amino]-1,1-bis-[2-(4-methoxy-phenoxy)-ethyl]-piperidinium chloride] | 0.104 | 
Nc1nc(N)c(C(=O)NC2CCC[N+](CCCc3ccc(OCC(=O)O)cc3)(CCCc3ccc(OCC(=O)O)cc3)C2)nc1Cl (centres unmarked) [Example 6.1, 1,1-Bis-[3-(4-carboxymethoxy-phenyl)-propyl]-3-[(3,5-diamino-6-chloro-pyrazine-2-carbonyl)-amino]-piperidinium chloride] |  | IC50 (value printed in the example text with μM): > 1 µM
Nc1nc(N)c(C(=O)N[C@H]2CCC[N+](CCCc3ccc(OCC(=O)NCCO)cc3)(CCCc3ccc(OCC(=O)NCCO)cc3)C2)nc1Cl [Example 6.38] | 0.045 | 
COC(=O)COc1ccc(CCC[N+]2(CCCc3ccc(OCC(=O)O)cc3)CCCC(NC(=O)c3nc(Cl)c(N)nc3N)C2)cc1 (centres unmarked) [Example 8, 1-[3-(4-Carboxymethoxy-phenyl)-propyl]-3-[(3,5-diamino-6-chloro-pyrazine-2-carbonyl)amino]-1-[3-(4-methoxycarbonylmethoxy-phenyl)-propyl]-piperidinium trifluoroacetate] |  | IC50 (unit inferred): 0.165 µM
COc1ccc(CCC[N+]2(CCCc3ccc(C(=O)N(CCCN(C)C)CCCN(C)C)cc3)CCCC(NC(=O)c3nc(Cl)c(N)nc3N)C2)cc1 (centres unmarked) [Example 5.3] | 0.055 | 
COc1ccc(CCC[N+]2(CCCc3ccc(C(=O)NCCOCCOCCO)cc3)CCCC(NC(=O)c3nc(Cl)c(N)nc3N)C2)cc1 (centres unmarked) [Example 5.5] | 0.07 | 
COc1ccc(CCC[N+]2(C)CC(NC(=O)c3nc(Cl)c(N)nc3N)[C@H](c3ccc(C)cc3)C2)cc1 (some centres unmarked) [Example 3.8] | 0.6 | 
Nc1nc(N)c(C(=O)NC2CCC[N+](CCCc3ccc(OCCOCCOCCO)cc3)(CCCc3ccc(OCCOCCOCCO)cc3)C2)nc1Cl (centres unmarked) [Example 9, 3-[(3,5-Diamino-6-chloro-pyrazine-2-carbonyl)-amino]-1,1-bis-[3-(4-{2-[2-(2-hydroxyethoxy)-ethoxy]-ethoxy}-phenyl)-propyl]-piperidinium chloride] |  | IC50 (unit inferred): 0.095 µM
CN(CCS(C)(=O)=O)C(=O)COc1ccc(CCC[N+]2(CCCc3ccc(OCC(=O)N(C)CCS(C)(=O)=O)cc3)CCC[C@H](NC(=O)c3nc(Cl)c(N)nc3N)C2)cc1 [Example 6.48] | 0.085 | 
COc1ccc(CCC[N@+]2(C)CCC[C@H](NC(=O)c3nc(Cl)c(N)nc3N)C2)cc1 [Example 3.1] | 0.75 | 
C[N+](C)(C)CCNC(=O)COc1ccc(CCC[N+]2(CCCc3ccc(OCC(=O)NCC[N+](C)(C)C)cc3)CCCC(NC(=O)c3nc(Cl)c(N)nc3N)C2)cc1 (centres unmarked) [Example 6.6] | 0.068 | 
COc1ccc(CCC[N+]2(CCCc3ccc(C(=O)NCCC(=O)O)cc3)CCCC(NC(=O)c3nc(Cl)c(N)nc3N)C2)cc1 (centres unmarked) [Example 5.10, 1-{3-[4-(Carboxyethyl-carbamoyl)-phenyl]-propyl}-3-[(3,5-diamino-6-chloro-pyrazine-2-carbonyl)-amino]-1-[3-(4-methoxy-phenyl)-propyl]-piperidinium chloride] |  | IC50 (unit inferred): 0.15 µM
Nc1nc(N)c(C(=O)NC2CCC[N+](CCCc3cccc(O)c3)(CCCc3cccc(O)c3)C2)nc1Cl (centres unmarked) [Example 10.9, 3-[(3,5-Diamino-6-chloro-pyrazine-2-carbonyl)-amino]-1,1-bis-[3-(3-hydroxy-phenyl)propyl]-piperidinium chloride] |  | IC50 (unit inferred): 0.013 µM
Nc1nc(N)c(C(=O)N[C@H]2CCC[N+](CCCc3ccc(OCC(=O)N4CCC(O)(CO)CC4)cc3)(CCCc3ccc(OCC(=O)N4CCC(O)(CO)CC4)cc3)C2)nc1Cl [Example 6.36] | 0.067 | 
Nc1nc(N)c(C(=O)N[C@H]2CCC[N+](CCCc3ccc(OCC(=O)N4CCn5ccnc5C4)cc3)(CCCc3ccc(OCC(=O)N4CCn5ccnc5C4)cc3)C2)nc1Cl [Example 6.44] | 0.088 | 

The next lines start with results.

IC50 [1] [µM] | SMILES | also measured
0.035 | Nc1nc(N)c(C(=O)N[C@H]2CCC[N+](CCCc3ccc(OCC(=O)NC4CCS(=O)(=O)C4)cc3)(CCCc3ccc(OCC(=O)NC4CCS(=O)(=O)C4)cc3)C2)nc1Cl (some centres unmarked) [Example 6.23] | 
0.034 | N#Cc1ccc(CCC[N+]2(CCCc3ccc(C#N)cc3)CCC[C@H](NC(=O)c3nc(Cl)c(N)nc3N)C2)cc1 [Example 10.8, 1,1-Bis-[3-(4-cyano-phenyl)-propyl]-3-[(3,5-diamino-6-chloro-pyrazine-2-carbonyl)-amino]-piperidinium chloride] | 
0.018 | N#CCNC(=O)COc1ccc(CCC[N+]2(CCCc3ccc(OCC(=O)NCC#N)cc3)CCC[C@H](NC(=O)c3nc(Cl)c(N)nc3N)C2)cc1 [Example 6.31] | 
0.016 | Nc1nc(N)c(C(=O)N[C@H]2CCC[N+](CCCc3ccc(OCC(=O)NCCN4CCCC4=O)cc3)(CCCc3ccc(OCC(=O)NCCN4CCCC4=O)cc3)C2)nc1Cl [Example 6.35] | 
0.021 | CN(Cc1ccncc1)C(=O)COc1ccc(CCC[N+]2(CCCc3ccc(OCC(=O)N(C)Cc4ccncc4)cc3)CCC[C@H](NC(=O)c3nc(Cl)c(N)nc3N)C2)cc1 [Example 6.17] | 
0.044 | COCCCN(C)C(=O)COc1ccc(CCC[N+]2(CCCc3ccc(OCC(=O)N(C)CCCOC)cc3)CCC[C@H](NC(=O)c3nc(Cl)c(N)nc3N)C2)cc1 [Example 6.34] | 
0.038 | COc1ccc(CCC[N+]2(CCCc3ccc(OC)cc3)CCC[C@@H](NC(=O)c3nc(Cl)c(N)nc3N)C2)cc1 [Example 1.5] | 
0.02 | COc1ccc(CCC[N+]2(CCCc3ccc(C(=O)NCCCN(C)C)cc3)CCCC(NC(=O)c3nc(Cl)c(N)nc3N)C2)cc1 (centres unmarked) [Example 5.7] | 
0.025 | COc1ccc(CCC[N+]2(CCCc3ccc(C(N)=O)cc3)CCCC(NC(=O)c3nc(Cl)c(N)nc3N)C2)cc1 (centres unmarked) [Example 5.6] | 
